From patent publication US12660819B2, “Herbicidal derivatives” (SYNGENTA CROP PROTECTION AG, priority 2020, dated 2026)

How the values were obtained:
Format in all cases: in vivo
[1] = test system: Ipomoea hederacea (IPOHE); assay: Pre-emergence Test (glasshouse, percentage damage to the plant); details: 1000 g/ha unless otherwise stated, five-point scale
[2] = test system: Ipomoea hederacea (IPOHE); assay: Post-emergence Test (glasshouse, percentage damage to the plant); details: post-emergence spray, 1000 g/ha unless otherwise stated, evaluated after 13 days
Summary of the method: (§1)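 Compound formulated in 50:50 acetone/water with 0.5% Tween 20 was diluted to an aqueous spray and applied at 1000 g/ha, unless otherwise stated, onto sown pots. Evaluation after 13 days gave percentage damage, banded into a 1–5 score.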

Lolium perenne (LOLPE) [3] = assay: as above; details: post-emergence spray, 1000 g/ha unless otherwise stated, evaluated after 13 days
Summary of the method: (§2)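 Percentage damage to the plant, assessed 13 days after application and scored 1–5 in 20% bands. Pots sown in standard soil received compound at 1000 g/ha unless otherwise stated, sprayed under 24/16 °C, 14 h light, 65% humidity.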

[4] = test system: Amaranthus retoflexus (AMARE); assay: as above; details: post-emergence spray, 1000 g/ha unless otherwise stated, evaluated after 13 days
Summary of the method: as §2

[5] = test system: Echinochloa crus-galli (ECHCG); assay: as above; details: post-emergence spray, 1000 g/ha unless otherwise stated, evaluated after 13 days
Summary of the method: as §2

Solanum nigrum (SOLNI) [6] = assay: as above; details: post-emergence spray, 1000 g/ha unless otherwise stated, evaluated after 13 days
Summary of the method: as §2

Setaria faberi (SETFA) [7] = assay: as above; details: post-emergence spray, 1000 g/ha unless otherwise stated, evaluated after 13 days
Summary of the method: as §1

Solanum nigrum (SOLNI) [8] = assay: Pre-emergence Test (glasshouse, percentage damage to the plant); details: 1000 g/ha unless otherwise stated, five-point scale
[9] = test system: Echinochloa crus-galli (ECHCG); assay: as above; details: 1000 g/ha unless otherwise stated, five-point scale
Setaria faberi (SETFA) [10] = assay: as above; details: 1000 g/ha unless otherwise stated, five-point scale
Lolium perenne (LOLPE) [11] = assay: as above; details: 1000 g/ha unless otherwise stated, five-point scale
[12] = test system: Amaranthus retoflexus (AMARE); assay: as above; details: 1000 g/ha unless otherwise stated, five-point scale

CCn1c(C)c(-c2ccc(Cl)cc2Cl)c(=O)c(C(=O)O)c1-c1ccc(Cl)c(Cl)c1 [Compound 15, 5-(2,4-dichlorophenyl)-2-(3,4-dichlorophenyl)-1-ethyl-6-methyl-4-oxo-pyridine-3-carboxylic acid]
percentage damage to the plant, IPOHE [1]: 1 (1=0-20%)
Post-emergence Test IPOHE, percentage damage to the plant (five-point scale) [2]: 2 (2=21-40%)
Post-emergence Test LOLPE, percentage damage to the plant (five-point scale) (Lolium perenne (LOLPE) [3]): 1 (1=0-20%)
Post-emergence Test AMARE, percentage damage to the plant (five-point scale) [4]: 5 (5=81-100%)
Post-emergence Test ECHCG, percentage damage to the plant (five-point scale) [5]: 4 (4=61-80%)
Post-emergence Test SOLNI, percentage damage to the plant (five-point scale) (Solanum nigrum (SOLNI) [6]): 4 (4=61-80%)
Post-emergence Test SETFA, percentage damage to the plant (five-point scale) (Setaria faberi (SETFA) [7]): 5 (5=81-100%)
percentage damage to the plant, SOLNI (Solanum nigrum (SOLNI) [8]): 3 (3=41-60%)
percentage damage to the plant, ECHCG [9]: 1 (1=0-20%)
percentage damage to the plant, SETFA (Setaria faberi (SETFA) [10]): 5 (5=81-100%)
percentage damage to the plant, LOLPE (Lolium perenne (LOLPE) [11]): 1 (1=0-20%)
percentage damage to the plant, AMARE [12]: 5 (5=81-100%)

CCn1c(C)c(-c2ccccc2F)c(=O)c(C(=O)O)c1-c1ccc(Cl)c(Cl)c1 [Compound 14, 2-(3,4-dichlorophenyl)-1-ethyl-5-(2-fluorophenyl)-6-methyl-4-oxo-pyridine-3-carboxylic acid]
percentage damage to the plant, IPOHE [1]: 3 (3=41-60%)
Post-emergence Test IPOHE, percentage damage to the plant (five-point scale) [2]: 4 (4=61-80%)
Post-emergence Test LOLPE, percentage damage to the plant (five-point scale) (Lolium perenne (LOLPE) [3]): 4 (4=61-80%)
Post-emergence Test AMARE, percentage damage to the plant (five-point scale) [4]: 4 (4=61-80%)
Post-emergence Test ECHCG, percentage damage to the plant (five-point scale) [5]: 4 (4=61-80%)
Post-emergence Test SOLNI, percentage damage to the plant (five-point scale) (Solanum nigrum (SOLNI) [6]): 3 (3=41-60%)
Post-emergence Test SETFA, percentage damage to the plant (five-point scale) (Setaria faberi (SETFA) [7]): 4 (4=61-80%)
percentage damage to the plant, SOLNI (Solanum nigrum (SOLNI) [8]): 2 (2=21-40%)
percentage damage to the plant, ECHCG [9]: 4 (4=61-80%)
percentage damage to the plant, SETFA (Setaria faberi (SETFA) [10]): 5 (5=81-100%)
percentage damage to the plant, LOLPE (Lolium perenne (LOLPE) [11]): 1 (1=0-20%)
percentage damage to the plant, AMARE [12]: 2 (2=21-40%)

CCn1c(C)c(-c2ccoc2)c(=O)c(C(=O)O)c1-c1ccc(Cl)c(Cl)c1 [Compound 33, 2-(3,4-dichlorophenyl)-1-ethyl-5-(3-furyl)-6-methyl-4-oxo-pyridine-3-carboxylic acid]
percentage damage to the plant, IPOHE [1]: 2 (2=21-40%)
Post-emergence Test IPOHE, percentage damage to the plant (five-point scale) [2]: 3 (3=41-60%)
Post-emergence Test LOLPE, percentage damage to the plant (five-point scale) (Lolium perenne (LOLPE) [3]): 2 (2=21-40%)
Post-emergence Test AMARE, percentage damage to the plant (five-point scale) [4]: 3 (3=41-60%)
Post-emergence Test ECHCG, percentage damage to the plant (five-point scale) [5]: 2 (2=21-40%)
Post-emergence Test SOLNI, percentage damage to the plant (five-point scale) (Solanum nigrum (SOLNI) [6]): 3 (3=41-60%)
Post-emergence Test SETFA, percentage damage to the plant (five-point scale) (Setaria faberi (SETFA) [7]): 1 (1=0-20%)
percentage damage to the plant, SOLNI (Solanum nigrum (SOLNI) [8]): 1 (1=0-20%)
percentage damage to the plant, ECHCG [9]: 1 (1=0-20%)
percentage damage to the plant, SETFA (Setaria faberi (SETFA) [10]): 1 (1=0-20%)
percentage damage to the plant, LOLPE (Lolium perenne (LOLPE) [11]): 1 (1=0-20%)
percentage damage to the plant, AMARE [12]: 1 (1=0-20%)

CCn1c(C)c(-c2ncco2)c(=O)c(C(=O)O)c1-c1ccc(Cl)c(Cl)c1 [Compound 27, 2-(3,4-dichlorophenyl)-1-ethyl-6-methyl-5-oxazol-2-yl-4-oxo-pyridine-3-carboxylic acid]
percentage damage to the plant, IPOHE [1]: 1 (1=0-20%)
Post-emergence Test IPOHE, percentage damage to the plant (five-point scale) [2]: 2 (2=21-40%)
Post-emergence Test LOLPE, percentage damage to the plant (five-point scale) (Lolium perenne (LOLPE) [3]): 1 (1=0-20%)
Post-emergence Test AMARE, percentage damage to the plant (five-point scale) [4]: 3 (3=41-60%)
Post-emergence Test ECHCG, percentage damage to the plant (five-point scale) [5]: 3 (3=41-60%)
Post-emergence Test SOLNI, percentage damage to the plant (five-point scale) (Solanum nigrum (SOLNI) [6]): 3 (3=41-60%)
Post-emergence Test SETFA, percentage damage to the plant (five-point scale) (Setaria faberi (SETFA) [7]): 3 (3=41-60%)
percentage damage to the plant, SOLNI (Solanum nigrum (SOLNI) [8]): 1 (1=0-20%)
percentage damage to the plant, ECHCG [9]: 1 (1=0-20%)
percentage damage to the plant, SETFA (Setaria faberi (SETFA) [10]): 1 (1=0-20%)
percentage damage to the plant, LOLPE (Lolium perenne (LOLPE) [11]): 1 (1=0-20%)
percentage damage to the plant, AMARE [12]: 1 (1=0-20%)
